Experimental data: article PMC11232398, “Antimalarial activity of cecropin antimicrobial peptides derived from Anopheles mosquitoes” (Antimicrobial Agents and Chemotherapy, 2024)
Like-named read-outs stand apart in the source and are kept apart here.

How the values were obtained:
[1] = tested on: methyl-β-cyclodextrin-treated RBCs; assay: Hemolytic activity on cholesterol-depleted erythrocytes; assay type: cell-based, human; conditions: RBCs treated with 7.5 mM methyl-β-cyclodextrin for 2 hours at 37°C
From the text: Cholesterol is the main component of the RBC membrane and is important for maintaining its stability ([39]). Plasmodium falciparum infection efficiently depletes the red blood cells of cholesterol, which renders […] membranes susceptible to lysis ([40]). Therefore, methyl-β-cyclodextrin treatment was used to simulate the RBC cholesterol depletion caused by infection with Plasmodium. RBCs were washed once and then resuspended with PBS at 0.5% hematocrit. After treatment with the indicated concentration (7.5 mM) of methyl-β-cyclodextrin (Sigma) in RPMI for 2 hours at 37°C, the treated RBCs were washed with PBS and hemolysis assays were performed as described above. Two independent tests with five technical replicates were performed for each hemolysis assay.

[2] = tested on: RBCs infected by schizonts of P. falciparum 3D7; assay: Hemolytic activity on RBCs infected by schizonts; assay type: cell-based, human; conditions: percoll-purified 3D7 schizonts, 2% hematocrit in PBS
Method: To test the hemolytic activity of the peptides against RBCs infected by Plasmodium, schizonts of the P. falciparum 3D7 strain were collected. The parasite culture of mainly schizonts was centrifuged and resuspended to 50% hematocrit. Then, the resuspended culture was carefully laid on top of the gradient with 3 mL 70% and 3 mL 40% percoll-sorbitol solution. After centrifugation at 2,300 × g for 20 min at 20°C, schizonts from the 40/70% interface were collected and washed twice with 10× volume of ICM. The collected parasites were resuspended in PBS to 2% hematocrit for hemolysis assay as described above.

[3] = tested on: Plasmodium falciparum 3D7; assay: Transmission electron microscope analysis of parasite morphology; assay type: cell-based; conditions: TEM
Method: 3D7 strain parasites with parasitemia of 3% ~ 5% at a hematocrit of 2% were planted in 12-well plates, 3 mL/well. A 40-µM concentration of An-cecB or 200 µM An-cecB-1 was added and incubated for 30 min or 60 min. PBS was used as a control.
After incubation, the parasites were washed three times with ICM, and the electron microscope fixative solution (provided by the company) was added to keep the parasites clumped for 2 hours at room temperature. Finally, the samples were sent to a commercial company at 4°C for transmission electron microscope analysis.

[4] = tested on: P. falciparum 3D7 (sensitive strain); assay: In vitro antimalarial activity, 3-day inhibition assay; assay type: cell-based, Plasmodium falciparum
Method: Blood stages of the laboratory clones P. falciparum 3D7 (sensitive strain), P. falciparum 803 (artemisinin-resistant strain), and P. falciparum Dd2 (chloroquine-resistant strain) were cultured in vitro according to the method of Trager and Jensens with minor modifications ([37]). Briefly, cultures were maintained in O-positive human erythrocytes (RBCs) as host cells at 2% hematocrit and maintained in complete medium (CM) [RPMI-1640 culture medium supplemented with NaHCO3 (2 mg/mL), hypoxanthine (50 µg/mL), HEPES (5.96 mg/mL), albumax II (1%), and gentamicin (40 µg/mL)]. The cultures were diluted to 1% parasitemia and 2% hematocrit in CM and incubated in a humidified atmosphere with 5% O2, 5% CO2, and 90% N2 at 37°C. Prior to experiments, the cultures were highly synchronized for ring stages using 5% sorbitol twice at a 40-h interval. Briefly, ring stage cultures were centrifuged and the pellet was washed once in incomplete medium (ICM, RPMI-1640 without addition). Then, the pellet was resuspended in 5% sorbitol and incubated at 37°C for 10 min. After incubation, the suspension was centrifuged and the pellet was washed once and resuspended in medium. The development of the parasite was observed using light microscopy, and parasitemia was determined by counting at least 10,000 RBCs on Giemsa’s solution-stained thin blood smears.
Highly synchronous ring stage parasites were used to investigate the in vitro antimalarial activity of the peptides. For preliminary screening of in vitro antimalarial activity, a 3-day inhibition assay was used to test the antimalarial activity of An-cecA, An-cecB, and An-cecC. […] For IC50 assay, a series of concentrations of peptides were added to the parasite culture. The concentrations of An-cecB were 5, 15, 20, 25, 30, 35, and 40 µM, while those of An-cecB-1 were 20, 30, 40, 50, 60, 70, 80, and 90 µM. After 72 hours of incubation, the antimalarial effects of peptides were estimated. Thin blood films stained with Giemsa’s solution were counted under a microscope. The parasitemia of cultures treated with peptides was compared with that of control. IC50 was calculated by GraphPad Prism.

[5] = tested on: Plasmodium berghei (ANKA); assay type: in vivo; conditions: parasitemia on day 4, BALB/c mice
Method: The in vivo antimalarial activity of peptides was evaluated using a 4-day suppressive test in P. berghei-infected mouse model mice ([44]). The mice were divided into five groups of six mice. Donor mice were infected with 200 µL of P. berghei parasite inoculum by intraperitoneal injection. Parasitized blood was collected from the tail vein of donor mice and diluted with 0.9% sodium chloride solution. Mice were then infected with saline suspension of 1 × 10^7 parasitized erythrocytes (0.2 mL) by intraperitoneal injection (Day0). Four hours after infection, each of the three groups of mice was treated with peptide by intraperitoneal injection at daily doses of 10, 25, and 50 mg/kg for 4 consecutive days. Positive control mice were treated with chloroquine at daily doses of 10 mg/kg and negative control mice with normal saline. On day 4 (96 hours post infection), the parasitemia of each mouse was determined under a light microscope by examination of Giemsa’s solution-stained thin blood smears prepared from mouse tail blood ([28]). The mean parasitemia in each group of mice was used to calculate the % suppression for each dose using the following formula:
%suppression = (parasitemia of negative control − parasitemia of test) * 100/parasitemia of negative control.
The antimalarial activity of the peptides was determined from the ratio of the percentage of parasite reduction in treated and negative control groups ([44]). Results were expressed as median (range) values.

Bacillus subtilis (ATCC) = assay: Antimicrobial assay, broth dilution; assay type: cell-based; conditions: B. subtilis
Method: (§1) Gram-positive bacteria S. aureus, B. subtilis, and Gram-negative E. coli were used in antimicrobial assays. Bacteria were first grown in LB (Luria-Bertani) broth to an absorbance of 0.8 at 600 nm. The antibacterial behavior of the peptides was studied via the agar disc diffusion assay and broth microdilution method ([41], [42]). The agar plates were made by pouring 20 mL of LB broth containing 1.5% agar into 60-mm Petri dishes. Then, a 100-µL bacterial suspension (10^6 CFU/mL) was spread over the LB agar plate. Ten microliters of the 2-mg/mL peptide sample was carefully dropped onto sterile 2-mm diameter paper discs that had been previously attached to the plate. The plates were carefully placed in an incubator at 37°C for 24 hours. If an examined sample had antimicrobial activity, a clear zone was observed around the filter paper representing inhibition of bacterial growth. The MIC was determined by the broth dilution method, and the absorbance value was measured at an optical density at 600 nm (OD600) to determine the inhibition rate of peptides at different concentrations against each bacteria. Then, the MIC at which no visible growth occurred was recorded ([38]). The MIC50 was calculated by GraphPad Prism.

[6] = tested on: Escherichia coli (ATCC 25922); assay: Antimicrobial assay, broth dilution; assay type: cell-based; conditions: E. coli
Method: as §1

[7] = tested on: Staphylococcus aureus (ATCC 6538); assay: Antimicrobial assay, broth dilution; assay type: cell-based; conditions: S. aureus
Method: as §1

[8] = 40 µM An-cecB or 200 µM An-cecB-1, total 20 / 22
[9] = 200 µM peptide, 3D7, Giemsa smears
[10] = 50 µM peptide, 72 h, ring stage, 1% parasitemia, 2% hematocrit, Giemsa smears

Method for HEK293T cells: The mammalian cell lines HepG2 and HEK293T were used for cytotoxicity tests. The cells were cultured in Dulbecco’s modified Eagle medium supplemented with 10% fetal bovine serum and 1% penicillin/streptomycin in an incubator at 37°C with 5% CO2. Cells were seeded at a density of 1 × 10^5 cells/mL per well into a 96-well plate overnight and treated with different concentrations of peptides for 48 hours. To analyze the CC50 of peptides, a series of concentrations of peptides (0, 5, 10, 20, 30, 40, 50, 60, and 70 µM) were set to detect their cytotoxic concentrations. Then, 10% CCK-8 solution was added into each well and incubated for another 2 hours. The absorbance was monitored by a microplate reader at 450 nm. PBS was used as a negative control and the inhibition of each drug was normalized to that of the PBS control. CC50 was calculated by GraphPad Prism. Two independent assays with three technical replicates each time were conducted.

## APRWKFGKRLEKLGRNVF-NH2 [An-cecB-1, truncated peptide of An-cecB, anterior part]
[1]
  hemolysis of cholesterol-depleted erythrocytes: no hemolysis effect
[2]
  hemolytic activity to infected erythrocytes: did not
HEK293T cells
  cytotoxicity to HEK293T cells: No cytotoxicity
[3]; 40 µM An-cecB or 200 µM An-cecB-1, 30 or 60 min, total 20 (An-cecB), 22 (An-cecB-1)
  Normal (number of parasites): 7
[3]; [8]
  Disintegration (number of parasites): 0
  Parasite disoriented (number of parasites): 0
  Parasite membrane dissolution (number of parasites): 2
  Parasite shrunken (number of parasites): 15
  Vacuole formation (number of parasites): 7
[4]; [9]
  inhibition rate: 83.67%
[4]; 3D7, 72 h incubation, Giemsa smears, GraphPad Prism, two independent assays, three technical replicates
  IC50: 68.6 µM
[5]; 10 mg/kg daily i.p. for 4 consecutive days
  Inhibition (%) of P. berghei growth: 17.03%
[5]; 25 mg/kg daily i.p. for 4 consecutive days
  Inhibition (%) of P. berghei growth: 39.35%
[5]; 50 mg/kg daily i.p. for 4 consecutive days
  Inhibition (%) of P. berghei growth: 54.19%
Bacillus subtilis (ATCC); OD600
  MIC: 25 µM
Bacillus subtilis (ATCC); OD600, GraphPad Prism
  MIC50: 18.94 µM
[6]; OD600
  MIC: 25 µM
[6]; OD600, GraphPad Prism
  MIC50: 12.7 µM
[7]; OD600
  MIC: > 200 µM
[7]; OD600, GraphPad Prism
  MIC50: > 200 µM

## GKRLEKLGRNVFRAAKK-NH2 [An-cecB-3, truncated peptide of An-cecB, middle part]
HEK293T cells
  cytotoxicity to HEK293T cells: No cytotoxicity
[4]; [9]
  inhibition rate: 24.74%

## GRLKKLGKKIEGAGKRVFKAA EKALPVVAGVKAL-NH2 [An-cecA]
[4]; [10]
  inhibition rate: 18.7%

## RAAKKALPVIAGYKAL-NH2 [An-cecB-2, truncated peptide of An-cecB, posterior part]
HEK293T cells
  cytotoxicity to HEK293T cells: No cytotoxicity
[4]; [9]
  inhibition rate: 12.14%

## RRFKKFLKKVEGAGRRVANAA QKGLPLAAGVKGL-NH2 [An-cecC]
[4]; [10]
  inhibition rate: 40.16%
